Reference: BindingDB's records for doi:10.1038/nchembio.2007.16 (Eisai Co., Ltd, 2007)
Several values for one entry are separate records, joined by “and”; a condition that tells them apart may be missing. Identical values can stand only once.

Key:
[1] = target: T1, Splicing factor 3B subunit 3 (Homo sapiens, UniProt Q15393); experiment: WiDr; conditions: pH 7.8; 4 °C
T1 sequence (Q15393 whole entry): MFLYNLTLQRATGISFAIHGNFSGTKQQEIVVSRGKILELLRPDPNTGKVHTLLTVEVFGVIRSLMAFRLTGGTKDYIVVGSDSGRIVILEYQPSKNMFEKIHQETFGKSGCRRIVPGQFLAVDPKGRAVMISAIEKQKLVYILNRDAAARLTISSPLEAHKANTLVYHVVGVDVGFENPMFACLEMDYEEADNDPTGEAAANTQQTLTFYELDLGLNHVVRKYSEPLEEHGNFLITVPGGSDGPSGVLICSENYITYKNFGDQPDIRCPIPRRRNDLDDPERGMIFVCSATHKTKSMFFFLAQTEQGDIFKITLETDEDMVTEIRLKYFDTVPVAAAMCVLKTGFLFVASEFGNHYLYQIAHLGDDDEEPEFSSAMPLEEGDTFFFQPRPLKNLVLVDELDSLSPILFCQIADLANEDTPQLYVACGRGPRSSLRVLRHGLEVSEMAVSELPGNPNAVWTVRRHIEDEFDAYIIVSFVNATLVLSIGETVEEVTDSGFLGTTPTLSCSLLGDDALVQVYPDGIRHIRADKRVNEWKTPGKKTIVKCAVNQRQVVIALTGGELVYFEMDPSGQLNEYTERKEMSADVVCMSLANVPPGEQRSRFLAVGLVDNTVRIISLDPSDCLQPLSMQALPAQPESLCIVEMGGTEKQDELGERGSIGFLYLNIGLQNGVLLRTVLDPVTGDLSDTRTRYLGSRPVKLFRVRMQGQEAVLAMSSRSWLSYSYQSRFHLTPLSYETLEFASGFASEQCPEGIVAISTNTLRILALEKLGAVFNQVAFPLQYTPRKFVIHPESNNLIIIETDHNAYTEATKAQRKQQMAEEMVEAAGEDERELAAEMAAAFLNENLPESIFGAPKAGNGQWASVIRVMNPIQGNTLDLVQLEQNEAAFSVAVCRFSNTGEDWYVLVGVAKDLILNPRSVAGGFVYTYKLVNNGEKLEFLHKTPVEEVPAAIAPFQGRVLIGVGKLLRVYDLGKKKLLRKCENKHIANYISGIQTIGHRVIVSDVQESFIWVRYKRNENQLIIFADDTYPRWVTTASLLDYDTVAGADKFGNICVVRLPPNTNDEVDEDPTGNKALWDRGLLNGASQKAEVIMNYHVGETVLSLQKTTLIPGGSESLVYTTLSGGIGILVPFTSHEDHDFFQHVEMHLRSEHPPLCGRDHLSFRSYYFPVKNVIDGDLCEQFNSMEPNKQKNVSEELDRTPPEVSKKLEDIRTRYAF
Source text: Cell proliferation assay using WiDr

[2] = target: Splicing factor 3B subunit 1 / PHD finger-like domain-containing protein 5A (Homo sapiens, UniProt O75533+Q7RTV0); experiment: VEGF-PLAP; conditions: pH 7.8; 4 °C
Source text: Placental alkaline phosphatase (PLAP) reporter assay controlled by VEGF promoter (VEGF-PLAP)

Splicing factor 3B subunit 1 / PHD finger-like domain-containing protein 5A, sequence (O75533 whole entry, the tested form may be a part): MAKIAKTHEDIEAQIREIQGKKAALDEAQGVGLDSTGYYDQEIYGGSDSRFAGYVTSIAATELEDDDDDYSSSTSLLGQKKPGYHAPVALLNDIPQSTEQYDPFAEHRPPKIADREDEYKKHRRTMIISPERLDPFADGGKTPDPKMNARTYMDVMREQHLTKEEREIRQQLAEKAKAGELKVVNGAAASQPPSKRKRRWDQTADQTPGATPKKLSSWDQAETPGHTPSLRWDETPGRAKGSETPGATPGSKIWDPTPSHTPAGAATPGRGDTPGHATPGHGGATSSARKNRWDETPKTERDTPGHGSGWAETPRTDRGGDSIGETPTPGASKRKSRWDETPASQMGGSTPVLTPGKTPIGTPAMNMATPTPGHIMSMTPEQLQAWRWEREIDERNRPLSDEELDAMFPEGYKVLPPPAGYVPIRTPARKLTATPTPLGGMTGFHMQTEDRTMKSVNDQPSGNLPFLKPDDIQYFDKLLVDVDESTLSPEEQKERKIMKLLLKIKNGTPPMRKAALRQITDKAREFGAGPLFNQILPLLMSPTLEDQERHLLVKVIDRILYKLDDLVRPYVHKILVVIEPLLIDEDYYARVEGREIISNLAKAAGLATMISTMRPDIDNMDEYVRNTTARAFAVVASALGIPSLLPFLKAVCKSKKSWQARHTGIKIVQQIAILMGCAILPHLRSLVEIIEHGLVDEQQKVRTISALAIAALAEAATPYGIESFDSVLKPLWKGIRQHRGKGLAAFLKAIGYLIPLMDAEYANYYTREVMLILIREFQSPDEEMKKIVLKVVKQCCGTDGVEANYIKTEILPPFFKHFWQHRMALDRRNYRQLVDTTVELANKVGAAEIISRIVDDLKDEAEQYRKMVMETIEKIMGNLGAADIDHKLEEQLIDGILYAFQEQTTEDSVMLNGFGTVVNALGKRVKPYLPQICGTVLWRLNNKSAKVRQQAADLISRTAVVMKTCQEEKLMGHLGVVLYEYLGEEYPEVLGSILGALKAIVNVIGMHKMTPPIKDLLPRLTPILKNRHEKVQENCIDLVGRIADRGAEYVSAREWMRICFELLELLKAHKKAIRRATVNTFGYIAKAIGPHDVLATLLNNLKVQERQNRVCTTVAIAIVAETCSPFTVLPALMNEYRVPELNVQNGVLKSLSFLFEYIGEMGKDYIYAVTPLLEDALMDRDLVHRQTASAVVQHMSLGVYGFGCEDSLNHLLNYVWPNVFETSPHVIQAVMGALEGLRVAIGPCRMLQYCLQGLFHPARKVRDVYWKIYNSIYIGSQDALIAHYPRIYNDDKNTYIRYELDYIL
Splicing factor 3B subunit 1 / PHD finger-like domain-containing protein 5A, sequence (Q7RTV0 2-110 limits assumed): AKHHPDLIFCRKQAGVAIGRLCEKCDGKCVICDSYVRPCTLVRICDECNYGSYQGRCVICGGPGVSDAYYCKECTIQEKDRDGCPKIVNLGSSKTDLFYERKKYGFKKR

| SMILES | EC50 [1] [nM] | EC50 [2] |
| --- | --- | --- |
| CC[C@H](O)[C@@H](C)[C@H]1O[C@@H]1C[C@H](C)/C=C/C=C(\C)[C@H]1OC(=O)C[C@H](O)CC[C@@](C)(O)[C@@H](OC(=O)NCCCC[C@H](NC(=O)c2ccc(C3(C(F)(F)F)N=N3)cc2)C(=O)N(C)CCN(C)C(=O)CCCC[C@H]2SC[C@H]3NC(=O)N[C@H]32)/C=C/[C@@H]1C [CID1620213] | 595 |  |
| CC[C@H](O)[C@@H](C)[C@H]1O[C@@H]1C[C@@](C)(O)/C=C/C=C(\C)[C@H]1OC(=O)C[C@H](O)CC[C@@](C)(O)[C@@H](OC(C)=O)/C=C/[C@@H]1C [(3R,6R,7S,8E,10S,11S,12E,14E,16R,18R,19R,20R,21S)-7-acetoxy-3,6,16,21-tetrahydroxy-6,10,12,16,20-pentamethyl-18,19-epoxytricosa-8,12,14-triene-11-olide] | 6 | 4.3 nM |
| CCNC(=O)O[C@H]1/C=C/[C@H](C)[C@@H](/C(C)=C/C=C/[C@@H](C)C[C@H]2O[C@@H]2[C@H](C)[C@@H](O)CC)OC(=O)C[C@H](O)CC[C@@]1(C)O [CID16202133] | 6.1 | 4.9 nM |
| CC[C@H](O)[C@@H](C)[C@H]1O[C@@H]1C[C@H](C)/C=C/C=C(\C)[C@H]1OC(=O)C[C@H](O)CC[C@@](C)(O)[C@@H](OC(=O)NCCOCCOCCNC(=O)CCCCC2=[N+]3C(=Cc4c(C)cc(C)n4[B-]3(F)F)C=C2)/C=C/[C@@H]1C [CID16202134] | 70.2 | 78.4 nM and 645 nM |
